# Key:
# GSPT1 = GSPT1 (Homo sapiens, UniProt P15170+Q96SW2); test: HiBiT degradation assay, GSPT1, Procedure A; assay type: cell-based; parameters: HiBit-GSPT1 KI HEK293(LgBit) Cells; host or cells: HEK293(LgBit) knock-in cells
# In short: (§1)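 10-pt dose response, 10–0.005 μM, 0.1% DMSO; cells 1×10^6/ml in DMEM/10% FBS, 6 h, 37° C; HiBiT lytic detection, luminescence; DC50 + Ymin by 4-parameter fit.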
# CK1α = target: T1, CK1α (Homo sapiens, UniProt P48729+Q96SW2); test: HiBiT degradation assay, CK1α, Procedure A; assay type: cell-based
# T1 construct: CSNK1A1-HiBit KI HEK293(LgBit) Cells; host or cells: HEK293(LgBit) knock-in cells
# T1 sequence (P48729 whole entry): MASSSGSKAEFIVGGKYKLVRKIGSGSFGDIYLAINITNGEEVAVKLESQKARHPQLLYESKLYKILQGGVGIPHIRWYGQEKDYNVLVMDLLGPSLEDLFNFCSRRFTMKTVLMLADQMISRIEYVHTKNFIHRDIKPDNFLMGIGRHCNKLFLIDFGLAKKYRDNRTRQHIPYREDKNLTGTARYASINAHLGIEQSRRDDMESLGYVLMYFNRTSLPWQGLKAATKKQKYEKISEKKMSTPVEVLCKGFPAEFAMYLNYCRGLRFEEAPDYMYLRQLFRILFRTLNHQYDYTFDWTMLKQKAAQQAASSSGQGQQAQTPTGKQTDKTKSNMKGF
# T1 sequence (Q96SW2 whole entry): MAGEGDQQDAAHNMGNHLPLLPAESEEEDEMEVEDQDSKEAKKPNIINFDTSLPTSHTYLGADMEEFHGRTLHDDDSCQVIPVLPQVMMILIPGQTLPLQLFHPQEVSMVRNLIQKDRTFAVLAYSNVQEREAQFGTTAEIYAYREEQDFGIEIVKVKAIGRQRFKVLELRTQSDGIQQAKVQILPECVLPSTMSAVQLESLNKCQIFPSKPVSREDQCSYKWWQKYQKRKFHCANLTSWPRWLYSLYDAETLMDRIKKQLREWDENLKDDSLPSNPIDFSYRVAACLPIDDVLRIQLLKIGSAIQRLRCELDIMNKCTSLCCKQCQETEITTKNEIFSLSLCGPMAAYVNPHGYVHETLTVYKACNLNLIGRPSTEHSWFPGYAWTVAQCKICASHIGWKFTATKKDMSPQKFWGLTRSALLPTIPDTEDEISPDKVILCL
# T1 sequence (Q16531 whole entry partner): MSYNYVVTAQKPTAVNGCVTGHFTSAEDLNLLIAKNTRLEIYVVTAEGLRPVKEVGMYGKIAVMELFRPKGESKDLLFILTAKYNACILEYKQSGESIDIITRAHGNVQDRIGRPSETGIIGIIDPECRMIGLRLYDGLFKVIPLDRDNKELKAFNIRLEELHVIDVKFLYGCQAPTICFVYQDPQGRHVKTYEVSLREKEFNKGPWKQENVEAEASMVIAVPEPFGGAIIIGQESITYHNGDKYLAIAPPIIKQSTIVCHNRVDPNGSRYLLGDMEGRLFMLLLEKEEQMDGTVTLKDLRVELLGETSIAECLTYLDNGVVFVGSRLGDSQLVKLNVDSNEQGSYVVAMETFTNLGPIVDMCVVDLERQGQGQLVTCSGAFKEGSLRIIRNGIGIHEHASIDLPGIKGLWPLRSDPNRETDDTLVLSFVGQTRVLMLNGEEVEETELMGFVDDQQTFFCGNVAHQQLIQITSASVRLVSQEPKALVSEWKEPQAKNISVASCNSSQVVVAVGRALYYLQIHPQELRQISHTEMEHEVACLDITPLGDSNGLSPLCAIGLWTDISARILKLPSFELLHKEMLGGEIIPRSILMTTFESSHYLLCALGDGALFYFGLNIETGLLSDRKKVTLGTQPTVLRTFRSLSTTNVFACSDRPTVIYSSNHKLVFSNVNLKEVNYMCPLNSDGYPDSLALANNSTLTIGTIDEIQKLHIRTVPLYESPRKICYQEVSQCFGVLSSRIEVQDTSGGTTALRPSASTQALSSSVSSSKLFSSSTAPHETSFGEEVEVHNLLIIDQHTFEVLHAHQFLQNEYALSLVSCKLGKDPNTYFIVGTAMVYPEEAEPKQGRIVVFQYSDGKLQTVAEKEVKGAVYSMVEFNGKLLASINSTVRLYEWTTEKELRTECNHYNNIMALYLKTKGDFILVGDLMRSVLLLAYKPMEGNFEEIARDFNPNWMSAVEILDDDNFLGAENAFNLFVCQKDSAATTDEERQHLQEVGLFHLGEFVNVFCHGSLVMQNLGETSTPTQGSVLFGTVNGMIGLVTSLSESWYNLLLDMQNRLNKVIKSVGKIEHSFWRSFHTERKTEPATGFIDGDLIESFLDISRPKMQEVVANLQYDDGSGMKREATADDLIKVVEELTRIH
# In short: as §1
# Chain of GSPT1 (P15170 whole entry): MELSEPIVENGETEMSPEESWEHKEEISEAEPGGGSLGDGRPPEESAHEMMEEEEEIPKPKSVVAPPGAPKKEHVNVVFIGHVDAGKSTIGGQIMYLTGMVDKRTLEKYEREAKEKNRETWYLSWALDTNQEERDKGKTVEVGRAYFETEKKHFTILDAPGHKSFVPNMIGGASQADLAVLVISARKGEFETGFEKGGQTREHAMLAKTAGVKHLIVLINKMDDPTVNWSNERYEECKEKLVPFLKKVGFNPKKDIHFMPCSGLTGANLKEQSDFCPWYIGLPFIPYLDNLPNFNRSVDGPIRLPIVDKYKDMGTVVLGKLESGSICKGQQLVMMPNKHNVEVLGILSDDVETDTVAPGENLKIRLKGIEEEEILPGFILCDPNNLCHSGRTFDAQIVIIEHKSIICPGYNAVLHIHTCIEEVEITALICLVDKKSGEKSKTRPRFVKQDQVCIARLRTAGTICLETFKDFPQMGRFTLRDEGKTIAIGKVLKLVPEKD
# Chain of GSPT1 (Q96SW2 whole entry): as the sequence (Q96SW2 whole entry) above
# Chain of GSPT1 (Q16531 whole entry partner): as the sequence (Q16531 whole entry partner) above
Structure (SMILES),DC50 (GSPT1; six hours) [nM],GSPT1 Ymin (GSPT1; six hours),CK1α Ymin (CK1α; six hours),DC50 (CK1α; six hours) [nM],DC50 (GSPT1; six hours incubation) [nM],GSPT1 Ymin (GSPT1; six hours incubation),CK1α Ymin (CK1α; six hours incubation),DC50 (CK1α; six hours incubation) [nM]
Cn1cnc(-c2ccc3c(c2)CN(C2CCC(=O)NC2=O)C3=O)c1-c1cccc2cc[nH]c12 (centres unmarked) [Example 526],< 25,F (F = >75-100% remaining),E (E = >25-75% remaining),< 25,–,–,–,–
Cc1ccc(-c2nc(-c3ccc4c(c3)CN(C3CCC(=O)NC3=O)C4=O)cn2C)cc1C (centres unmarked) [Example 566],≥ 25,E (E = >25-75% remaining),C (C = 0-10% remaining),< 25,–,–,–,–
Cn1cnc(-c2ccc3c(c2)CN(C2CCC(=O)NC2=O)C3=O)c1-c1cncc(N)c1 (centres unmarked) [Example 523],≥ 25,E (E = >25-75% remaining),D (D = >10- 25% remaining),≥ 25,–,–,–,–
"CC(F)(F)Cn1ncc(-c2ccc3c(c2)CN(C2CCC(=O)NC2=O)C3=O)c1-c1ccccc1 (centres unmarked) [Example 336, 3-(5-(1-(2,2-difluoropropyl)-5-phenyl-1H-pyrazol-4-yl)-1-oxoisoindolin-2-yl)piperidine-2,6-dione]",–,–,–,–,≥ 25,F (F = >75-100% remaining),D (D = >10- 25% remaining),≥ 25
Cn1cnc(-c2ccc3c(c2)CN(C2CCC(=O)NC2=O)C3=O)c1-c1cccc(C(F)(F)F)c1 (centres unmarked) [Example 280],–,–,–,–,≥ 25,F (F = >75-100% remaining),E (E = >25-75% remaining),< 25
Cn1ncc(-c2ccc3c(c2)CN(C2CCC(=O)NC2=O)C3=O)c1-c1cc(F)ccc1F (centres unmarked) [Example 77],–,–,–,–,≥ 25,F (F = >75-100% remaining),E (E = >25-75% remaining),< 25
"Cn1cc(-c2ccc3c(c2)CN(C2CCC(=O)NC2=O)C3=O)c(-c2ccccc2)n1 (centres unmarked) [Example 3, 3-(5-(1-Methyl-3-phenyl-1H-pyrazol-4-yl)-1-oxoisoindolin-2-yl) piperidine-2,6-dione]",–,–,–,–,≥ 25,F (F = >75-100% remaining),E (E = >25-75% remaining),< 25
Cc1ccc(-c2c(-c3ccc4c(c3)CN(C3CCC(=O)NC3=O)C4=O)cnn2C)c(C#N)c1 (centres unmarked) [Example 109],–,–,–,–,≥ 25,F (F = >75-100% remaining),E (E = >25-75% remaining),< 25
Cn1cnc(-c2ccc3c(c2)CN(C2CCC(=O)NC2=O)C3=O)c1-c1ccc(OCCCN2CCOCC2)cc1 (centres unmarked) [Example 359],–,–,–,–,≥ 25,F (F = >75-100% remaining),E (E = >25-75% remaining),< 25
Cn1cnc(-c2ccc3c(c2)CN(C2CCC(=O)NC2=O)C3=O)c1-c1ccc(F)c(Cl)c1 (centres unmarked) [Example 257],–,–,–,–,≥ 25,F (F = >75-100% remaining),D (D = >10- 25% remaining),< 25
"CC(C)n1cc(-c2ccc3c(c2)CN(C2CCC(=O)NC2=O)C3=O)nc1-c1ccccc1 (centres unmarked) [Example 549, 3-(5-(1-isopropyl-2-phenyl-1H-imidazol-4-yl)-1-oxoisoindolin-2-yl)piperidine-2,6-dione]",≥ 25,F (F = >75-100% remaining),C (C = 0-10% remaining),< 25,–,–,–,–
Cn1cnc(-c2ccc3c(c2)CN(C2CCC(=O)NC2=O)C3=O)c1-c1ccc(C(=O)NC2CCCC2)cc1 (centres unmarked) [Example 300],–,–,–,–,≥ 25,F (F = >75-100% remaining),D (D = >10- 25% remaining),≥ 25
Cn1cnc(-c2ccc3c(c2)CN(C2CCC(=O)NC2=O)C3=O)c1-c1ccc(F)cc1Cl (centres unmarked) [Example 259],–,–,–,–,< 25,E (E = >25-75% remaining),D (D = >10- 25% remaining),< 25
COc1cc(-c2nc(-c3ccc4c(c3)CN(C3CCC(=O)NC3=O)C4=O)cn2C)ccc1Cl (centres unmarked) [Example 579],< 25,F (F = >75-100% remaining),C (C = 0-10% remaining),< 25,–,–,–,–
CNC(=O)c1cccc(-c2c(-c3ccc4c(c3)CN(C3CCC(=O)NC3=O)C4=O)ncn2C)c1 (centres unmarked) [Example 268],–,–,–,–,≥ 25,F (F = >75-100% remaining),D (D = >10- 25% remaining),≥ 25
Cn1ncc(-c2ccc3c(c2)CN(C2CCC(=O)NC2=O)C3=O)c1-c1cccc(F)c1Cl (centres unmarked) [Example 108],–,–,–,–,≥ 25,F (F = >75-100% remaining),E (E = >25-75% remaining),< 25
CNC(=O)c1cccc(-c2c(-c3ccc4c(c3)CN(C3CCC(=O)NC3=O)C4=O)cnn2C)c1 (centres unmarked) [Example 122],–,–,–,–,≥ 25,F (F = >75-100% remaining),E (E = >25-75% remaining),≥ 25
Cc1ccsc1-c1c(-c2ccc3c(c2)CN(C2CCC(=O)NC2=O)C3=O)ncn1C (centres unmarked) [Example 344],–,–,–,–,≥ 25,F (F = >75-100% remaining),E (E = >25-75% remaining),< 25
Cn1cnc(-c2ccc3c(c2)CN(C2CCC(=O)NC2=O)C3=O)c1-c1cc(F)cc(C#N)c1 (centres unmarked) [Example 185],–,–,–,–,≥ 25,F (F = >75-100% remaining),D (D = >10- 25% remaining),< 25
Cn1ncc(-c2ccc3c(c2)CN(C2CCC(=O)NC2=O)C3=O)c1-c1ccc2cncn2c1 (centres unmarked) [Example 461],≥ 25,F (F = >75-100% remaining),C (C = 0-10% remaining),≥ 25,–,–,–,–
Cn1ncc(-c2ccc3c(c2)CN(C2CCC(=O)NC2=O)C3=O)c1-c1ccc(=O)n(C)c1 (centres unmarked) [Example 459],≥ 25,F (F = >75-100% remaining),E (E = >25-75% remaining),< 25,–,–,–,–
Cc1ccc(-c2c(-c3ccc4c(c3)CN(C3CCC(=O)NC3=O)C4=O)ncn2C)cc1CO (centres unmarked) [Example 252],–,–,–,–,≥ 25,E (E = >25-75% remaining),D (D = >10- 25% remaining),< 25
Cn1cnc(-c2ccc3c(c2)CN(C2CCC(=O)NC2=O)C3=O)c1-c1cccc(F)c1 (centres unmarked) [Example 441],< 25,E (E = >25-75% remaining),C (C = 0-10% remaining),< 25,–,–,–,–
Cc1ccc(-c2c(-c3ccc4c(c3)CN(C3CCC(=O)NC3=O)C4=O)cnn2C)c(C)c1 (centres unmarked) [Example 83],–,–,–,–,≥ 25,F (F = >75-100% remaining),E (E = >25-75% remaining),< 25
COc1ccc(-c2c(-c3ccc4c(c3)CN(C3CCC(=O)NC3=O)C4=O)ncn2C)c(C)c1 (centres unmarked) [Example 188],–,–,–,–,< 25,E (E = >25-75% remaining),C (C = 0-10% remaining),< 25
Cn1cc(-c2c(-c3ccc4c(c3)CN(C3CCC(=O)NC3=O)C4=O)cnn2C)cn1 (centres unmarked) [Example 366],–,–,–,–,≥ 25,F (F = >75-100% remaining),C (C = 0-10% remaining),< 25
Cn1ncc(-c2ccc3c(c2)CN(C2CCC(=O)NC2=O)C3=O)c1-c1ccccc1F (centres unmarked) [Example 67],–,–,–,–,≥ 25,F (F = >75-100% remaining),E (E = >25-75% remaining),< 25
Cc1cc(-c2c(-c3ccc4c(c3)CN(C3CCC(=O)NC3=O)C4=O)ncn2C)ccn1 (centres unmarked) [Example 398],< 25,F (F = >75-100% remaining),D (D = >10- 25% remaining),< 25,–,–,–,–
"Cn1nc(-c2ccc3c(c2)CN(C2CCC(=O)NC2=O)C3=O)nc1N1CCc2ccccc2C1 (centres unmarked) [Example 603, 3-(5-(5-(3,4-dihydroisoquinolin-2 (1H)-yl)-1-methyl-1H-1,2,4-triazol-3-yl)-1-oxoisoindolin-2-yl)piperidine-2,6-dione]",≥ 25,F (F = >75-100% remaining),D (D = >10- 25% remaining),< 25,–,–,–,–
